These results are taken from patent US8729026B2, “Method for inhibiting autophagy of motor neurons” (China Medical University, priority 2012, dated 2014).

Series [1] is described as follows: Phase I metabolism assay, rat hepatic microsomes, LC-MS/MS metabolite identification. The series is classed as in vitro ADME. As to conditions: butylidenephthalide 2 mM, rat hepatic microsomes 0.5 mg/mL, NADPH, 37° C., 60 minutes. The source says:
(§1) It has been known that the medicine metabolic pathway within an organism's liver can be primarily divided into phase I and phase II metabolism. Phase I metabolism occurs mainly by the redox reaction or hydrolysis reaction of medicine, and phase II metabolism occurs mainly by […]. This example simulated the phase I and II metabolism of butylidenephthalide that occur within an organism's liver by respectively mixing butylidenephthalide with hepatic microsomes or cryopreserved hepatocytes in vitro, and the products in the reaction solution were analyzed by liquid chromatograph-tandem mass spectrometer (LC-MS/MS) to identify the metabolites and the metabolic profile. The experimental steps were as follows:
(§2) Butylidenephthalide (2 mM) was mixed respectively with K3PO4 buffer solution (100 mM, pH7.4) containing human, rats or dogs hepatic micrsomes (0.5 mg/mL). The mixture was maintained at 37° C. for 10 minutes, and then pre-warmed cofactors (NADPH (2 mM) and MgCl2 (3 mM)) were added thereto and the mixture was incubated at 37° C. for 60 minutes. Thereafter, 3-fold volume of acetonitrile containing 0.1% formic acid was added to the mixture to terminate the reaction. The mixture was centrifuged at 13000 rpm for 5 minutes, and the supernatant was then collected and analyzed by LC-MS/MS to identify the metabolites. […]

Series [2] is described as follows: Phase I metabolism assay, dog hepatic microsomes, LC-MS/MS metabolite identification. As to conditions: butylidenephthalide 2 mM, dog hepatic microsomes 0.5 mg/mL, NADPH, 37° C., 60 minutes. In kind it is in vitro ADME.
Description: as §1, §2

A short description of series [3]: Phase I metabolism assay, human hepatic microsomes, LC-MS/MS metabolite identification. In kind it is in vitro ADME. As to conditions: butylidenephthalide 2 mM, human hepatic microsomes 0.5 mg/mL, NADPH, 37° C., 60 minutes.
Description: as §1, §2

Series [4] in a line: Phase II metabolism assay, rat cryopreserved hepatocytes, LC-MS/MS metabolite identification. The series is classed as in vitro ADME. As to conditions: butylidenephthalide 50 μM, 37° C., 6 hours.
Description: as §1
(§3) William's E medium containing 5×10^5 thawed human, rat or dog hepatocytes were respectively added into a 12-well culture dish, and the cells were cultured for 6 hours. Then, 0.5 mL of butylidenephthalide (50 μM) was added into the culture dish. After the cells were incubated at 37° C., 95% relative humidity and 5% CO2 for 6 hours, 2 mL of acetonitrile (100%) was added to terminate the reaction. The sample was collected, mixed adequately, and centrifuged at 45000 g, 4° C. for 10 minutes. The supernatant was then collected, dried, and analyzed by LC-MS/MS to identify the metabolites. […]

Series [5] can be described thus: Phase II metabolism assay, dog cryopreserved hepatocytes, LC-MS/MS metabolite identification. In kind it is in vitro ADME. As to conditions: butylidenephthalide 50 μM, 37° C., 6 hours.
Description: as §1, §3

Series [6] in a line: Phase II metabolism assay, human cryopreserved hepatocytes, LC-MS/MS metabolite identification. In kind it is in vitro ADME. To be noted: butylidenephthalide 50 μM, 37° C., 6 hours.
Description: as §1, §3

In series [7] the test system is SOD1-G93A transgenic mice. The series is described as follows: Survival of SOD1-G93A transgenic mice (amyotrophic lateral sclerosis model). The series is classed as in vivo, mouse. To be noted: 60-day-old SOD1-G93A transgenic mice, oral, 500 mg/kg-body weight once daily; for Survival days: n = 8, 500 mg/kg. The source says:
It has been known that about 20% of amyotrophic lateral sclerosis patients were associated with mutations in the gene that encodes Cu/Zn superoxide dismutase enzyme (SOD1), and G93A was the major mutation site. […] A SOD1-G93A transgenic mouse will show the symptoms of amyotrophic lateral sclerosis within about 90±5 days postnatal and will die within about 125±5 days postnatal.
This example used the above SOD1-G93A transgenic mice as the object of study to perform in vivo analysis. SOD1-G93A transgenic mice (60-day-old) were treated with butylidenephthalide (purchased from ECHO Chemical) by oral administration, with a dosage of 500 mg/kg-body weight once daily, wherein the unit “mg/kg-body weight” means the dosage required per kg-body weight.

Series [8] concerns SOD1-G93A transgenic mice. The series is described as follows: BBB Locomotor Rating Scale of hind limbs of SOD1-G93A transgenic mice. The series is classed as in vivo, mouse. To be noted: oral, 500 mg/kg-body weight once daily from 60 days of age; normal mice 21 points. How it is done:
SOD1-G93A transgenic mice (60-day-old) were treated with butylidenephthalide by oral administration, with a dosage of 500 mg/kg-body weight once daily. After the mice were treated for 30 days, the hind limbs of the mice were examined by BBB scale (Basso, Beattie, and Bresnahan (BBB) Locomotor Rating Scale). The BBB scale of the hind limbs of normal mice was 21 points, while the BBB scale of disease-progressed SOD1-G93A transgenic mice decreased from 21 to 0 points, wherein the lower scale represents a more severe action disorder in the mice. BBB scale is used to record the drug efficiency.

Another series concerns spinal motor neurons. The series is described as follows: Histochemical staining (hematoxylin and eosin): count of spinal motor neurons of SOD1-G93A transgenic mice. In kind it is in vivo, mouse. To be noted: spinal cord, mice sacrificed in extremis, oral 500 mg/kg-body weight once daily. On the procedure: SOD1-G93A transgenic mice (60-day-old) were treated with butylidenephthalide by oral administration, with a dosage of 500 mg/kg-body weight once daily. The SOD1-G93A transgenic mice in the experimental group were sacrificed in extremis, and the spinal cord was collected to perform hematoxylin and eosin stain. The number of motor neurons in the spinal cord was observed and counted by using a microscope, and the data was compared with that of the untreated control group.

The test system of a further series is LC3-II. The series is described as follows: Western blotting of autophagy biomarker LC3-II in spinal cord of SOD1-G93A transgenic mice. In kind it is in vivo, mouse. To be noted: compared with untreated control; oral 500 mg/kg-body weight once daily, sacrificed in extremis; β-actin internal control. How it is done:
SOD1-G93A transgenic mice (60-day-old) were treated with butylidenephthalide by oral administration, with a dosage of 500 mg/kg-body weight once daily. It has been indicated by research that SOD1-G93A transgenic mice lost its spinal motor neurons because of the significant increase of autophagy during the last phase of amyotrophic lateral sclerosis (which can be seen in In vivo optical imaging of motor neuron autophagy in a mouse model of amyotrophic lateral sclerosis. Autophagy 7:9, 1-8; September 2011, which is entirely incorporated hereinto by reference). Therefore, in this example, the SOD1-G93A transgenic mice in experimental group were sacrificed in extremis to collect their spinal cord, and the proteins were extracted from the spinal cord to perform Western blotting and to analyze the protein biomarker of autophagy, LC3-II, which was used to determine whether autophagy occurred in the lumbar spinal motor neurons of the mice, wherein β-actin was used as an internal control.
(In western blotting, separated proteins are transferred to a membrane and probed.)

Another series has as its system NSCs (neural stem cells). The series is described as follows: Cellular experiment: H2O2-stimulated autophagy of NSCs, LC3-II by Western blotting. In kind it is cell-based, mouse. To be noted: 10 μg/mL butylidenephthalide for 12 hours, then H2O2 (2500 μM/mL) for 12 hours. On the procedure: Cellular experiment was performed by using NSCs (neural stem cells) which can differentiate into mouse motor neurons to imitate mouse motor neurons.
NSCs were incubated in a culture dish (10 cm in diameter). The cells were washed with PBS when grown to a density of 60% confluence, and treated with different concentrations of butylidenephthalide for 12 hours. The cells were then treated with H2O2 (2500 μM/mL) for 12 hours to stimulate the autophagy of cells. Then, the cells were collected and the proteins were extracted, and the protein expression level of LC3-II in NSC was analyzed by SDS-PAGE and Western blotting.

In the case of `CCCC=C1OC(=O)c2ccccc21` [butylidenephthalide], the “metabolites produced (phase I metabolism)” value in series [1], in series [2] and in series [3] was “compounds (2) to (9)” throughout. Further, the “metabolites produced (phase II metabolism)” value in series [4], in [5] and in series [6] was “compounds (11) to (14)” in each case. In addition, the “life lengthened as compared to untreated control group” value in series [7] is listed as “about 22±2 days”. In addition, the Survival days entry in series [7] was “about 149±4.39 days”; in [7] (listed as n-BP) it was 149 ± 4.39 days. In addition, the “BBB scale of the hind limbs, after 135 days (decreased rapidly)” value in series [8] was in the range of 16 to 0 points. The “BBB scale of the hind limbs, from 125 to 135 days (decreased slowly)” value in [8] lay in the range of 21 to 16 points. Moreover, the “The number of motor neurons” value was determined as 24 in the series on spinal motor neurons (control group 3 ± 3.1) and 24 ± 4.2 with spinal motor neurons (control group 3 ± 3.1, listed as n-BP). In addition, the “protein expression level of LC3-II and pLC3-II in cervical, thoracic and lumbar spinal cord” value in the series with LC3-II was “significantly decreased”. In addition, the “protein expression level of LC3-II in NSC” value with NSCs (neural stem cells) was “decrease the protein expression level of LC3-II”.
